What was measured:
[1] = test system: S1P; experiment: S1P level in fibroblasts; details: normal or Alzheimer's patient fibroblasts, 10 μM
Procedure: (§2) Human fibroblast lines (normal and PS1) were obtained from Coriell Institute and cultured in a DMEM containing 15% FBS at 37° C. and 5% CO2 and used.
(§3) To measure a concentration level of Sphk, 3 μl of the fibroblast sample was mixed with a Sphk activity buffer and stored at 37° C. Subsequently, 54 μl of ethanol was added and the mixture was centrifuged after terminating a hydrolysis reaction. After 30 μl of a supernatant was transferred to a glass vial, 5 μl of the supernatant was applied to a UPLC system. Each Sphk concentration level was quantified using a UPLC system by comparing the Sphk concentration level with NBD bound to sphingosine and S1P. For extraction and quantification of Ceramide and S1P, lipids were extracted from the samples by a known method, and the dried lipid extract was resuspended in 25 μl of 0.2% Igepal CA-630 (Sigma-Aldrich), and the concentration levels of Ceramide and S1P were quantified using the UPLC system.

[2] = test system: S1P receptor 1 (S1PR1); experiment: S1PR1 expression in fibroblasts (Western blot); details: normal or Alzheimer's patient fibroblasts, 10 μM
Procedure: Human fibroblast lines (normal and PS1) were obtained from Coriell Institute and cultured in a DMEM containing 15% FBS at 37° C. and 5% CO2 and used. Thereafter, the cell lines were treated with 10 μM of each of the synthesized ASM inhibitory compounds and FTY720 (Cayman), and then changes in ASM activity, Ceramide, S1P, and S1PR1 were measured.
Protein expression of S1PR1 was analyzed using Western blotting. First, antibodies against S1PR1 (abcam) and β-actin (Santa Cruz) were used, and densitometric quantification was performed using ImageJ software (US National Institutes of Health).

[3] = test system: Sphk; experiment: Sphk activity in fibroblasts; details: normal or Alzheimer's patient fibroblasts, 10 μM
Procedure: as §2, §3

[4] = Brain distribution after oral administration in normal mice; format: in vivo, mouse; details: oral 10 mg/kg
[5] = test system: astrocytes (GFAP); experiment: Astrocytes (GFAP) in brain of APP/PS1 mouse; details: SCNPA 100 mg/kg/day, FTY720 1 mg/kg/day
[6] = in vivo; details: mouse, po, 10 mg/kg
[7] = test system: TNF-a, IL-1b, IL-6; experiment: mRNA expression of inflammatory cytokines in brain of APP/PS1 mouse (real-time quantitative PCR); format: in vivo; details: SCNPA 100 mg/kg/day, FTY720 1 mg/kg/day
Procedure: A real-time quantitative PCR method was used to measure the expression levels of inflammatory response-related cytokines (TNF-α, IL-1b, and IL-6). Total RNA was extracted from the brain tissue using an RNeasy Plus mini kit (Qiagen, Korea, Ltd), and cDNA was synthesized from 5 μg of total RNA using a kit from Clontech Co., Ltd. (Mountain View, CA). In addition, by using a Corbett research RG-6000 real-time PCR instrument, real-time quantitative PCR was performed by setting 95° C., 10 min; 95° C., 10 sec; 58° C., 15 sec; 72° C., 20 sec as one cycle and repeating 40 cycles.

[8] = test system: APP/PS1 mouse; experiment: Open field test and dark & light test in APP/PS1 mouse; format: in vivo; details: SCNPA 100 mg/kg/day, FTY720 1 mg/kg/day
Procedure: (§1) In order to confirm a potential effect on learning and memory, a Morris Water Maze (MWM) test was performed. In the MWM, the mouse learned a task 4 times a day for 10 days, a platform was removed on day 11, and aprobe trial was performed. To evaluate activity and anxiety, an open field test and a dark and light test were performed. In the open field test, the mouse was placed in a quadrangular box for 10 minutes and then overall activity and a time spent to move around a wall side and a center were measured. In the dark and light test, the mouse was placed in a quadrangular box consisting of a dark box and a light box for 10 minutes, and a time staying in each box, the number of reciprocating the boxes, and a time to first enter into a light box were measured.

[9] = Stability in mouse liver microsomes; format: in vitro ADME
[10] = Stability in human liver microsomes; format: in vitro ADME
[11] = Pharmacokinetic test in blood after oral or intravenous administration in normal mice; details: mouse, 10 mg/kg
[12] = test system: amyloid-β deposition; experiment: Amyloid-β deposition in medulla and hippocampus of APP/PS1 mouse (ThioS, Aβ40, Aβ42 staining); format: in vivo; details: 100 mg/kg/day
Procedure: In order to confirm whether the inhibition of ASM activity by administration of the ASM inhibitory compounds has an effect on Alzheimer's lesions, first, the medulla and hippocampus regions of the mouse were stained with Thioflavin S (ThioS) according to a known method to confirm protofibril amyloid-β deposition. In addition, immunofluorescence staining of Aβ40 and Aβ42 was performed to confirm the amyloid-β deposition.

[13] = test system: APP/PS1 mouse; experiment: Morris Water Maze test in APP/PS1 mouse; format: in vivo; details: compared to SCNPA101 or FTY720
Procedure: as §1

## CCCCCCCCc1ccc(CCC(N)(CO)CO)cc1 [FTY720]
[1]
  expression of S1P: reduced
[2]
  expression of S1PR1: reduced
[3]
  Sphk activity: reduced

## CCCCCCCCCCCCn1cc(C(N)(CO)CO)nn1 [SCNPA101, 2-amino-2-(1-dodecyl-1H-1,2,3-triazol-4-yl)propane-1,3-diol, reference compound]
[4]; mouse, brain
  Kp: 3.61
[5]
  activity of astrocytes: significantly decreased
[6]
  bioavailability: 19.6%
[7]
  gene expression of inflammatory cytokines TNF-a, IL-1b, and IL-6: restored to a normal level
[8]
  activity and anxiety: improved
[9]
  remaining amount after 30 minutes: 86.36%
[10]
  remaining amount after 30 minutes: 7.8%

## CCCCCCCCCn1cc(C(N)(CO)CO)nn1 [SCNPA201, 2-amino-2-(1-nonanyl-1H-1,2,3-triazol-4-yl)propane-1,3-diol]
[4]
  brain distribution values: 3.64
[11]
  bioavailability: 50.3%
[12]
  Aβ40 deposition: lowest
  Aβ42 deposition: lowest
  protofibril Aβ deposition (Thioflavin S): lowest
[7]
  gene expression of inflammatory cytokines TNF-a, IL-1b, and IL-6: restored to a normal level
[9]
  remaining amount after 30 minutes: 95.66%
[10]
  metabolic stability (in words): high metabolic stability
[13]
  effect of improving cognition: more remarkable

## CCCCCCn1cc(C(N)(CO)CO)nn1 [SCNPA501, 2-amino-2-(1-hexyl-1H-1,2,3-triazol-4-yl)propane-1,3-diol]
[4]
  brain distribution values: 1.41
[11]
  bioavailability: 72.3%
[9]
  remaining amount after 30 minutes: 98.21%
[10]
  metabolic stability (in words): high metabolic stability

— patent publication US12398109B2, “2-amino-2-(1,2,3-triazole-4-yl)propane-1,3-diol derivative of novel compound for directly inhibiting ASM activity, and use thereof” (KYUNGPOOK NATIONAL UNIVERSITY INDUSTRY-ACADEMIC COOPERATION …, priority 2018, dated 2025)
